Laboratory results from ChEMBL document CHEMBL1127099, “Anticonvulsant activity of glycine-site NMDA antagonists. 2. trans 2-carboxy-4-substituted tetrahydroquinolines” (Bioorg Med Chem Lett, 1993).

Legend:
[1] = molecular target: Glutamate NMDA receptor; experiment: Tested for the binding affinity at glycine recognition site of the NMDA receptor in rat cortical membranes using radiolabeled [3H]-L-689,560 560; format: cell membranes, Membrane
[2] = test system: Mus musculus; experiment: Tested for the anticonvulsant activity in DBA/2 mice after 30 mins of intraperitoneal administration; format: functional; details: ip, 0.5 h
[3] = species on record: Rattus norvegicus; experiment: Tested for the antagonistic potency for blockade of NMDA-induced depolarizations in rat cortical slices; format: functional
[4] = Ratio of ED50 values administered intracerebroventricular to that of antagonistic potency (Kb); format: functional
[5] = test system: Mus musculus; experiment: Tested for the anticonvulsant activity in DBA/2 mice after 15 mins of intracerebroventricular administration at pH 8.0; format: functional
[6] = molecular target: Glutamate NMDA receptor; experiment: Tested for the binding affinity at glycine recognition site of the NMDA receptor in rat cortical membranes using radiolabeled [3H]- L-689 560; format: cell membranes, Membrane
[7] = Partition coefficient (logP); format: physicochemical; details: octanol/water
[8] = Plasma half-life was tested; format: ADME, cell-free

## O=C(C[C@H]1C[C@H](C(=O)O)Nc2cc(Cl)cc(Cl)c21)Nc1ccccc1
[1]
  IC50: 19 nM

## COC(=O)[C@H]1C[C@H](NC(=O)Cc2ccc(CN)cc2)c2c(Cl)cc(Cl)cc2N1.Cl
[2]
  ED50: 31.5 mg/kg

## C[C@]12N[C@H](Cc3ccccc31)c1ccccc12 [DIZOCILPINE]
[2]
  ED50: 0.2 mg/kg
[3]
  Kb: 80 nM
[4]
  Ratio: 23

## C/C(=C\C(N)C(=O)O)CP(=O)(O)O (stereo not drawn) [CGP-37849]
[5]
  ED50: 0.02 nM
[2]
  ED50: 0.8 mg/kg
[3]
  Kb: 200 nM
[4]
  Ratio: 0.1

## O=C(O)C[C@H]1C[C@H](C(=O)O)Nc2cc(Cl)cc(Cl)c21
[6]
  IC50: 74 nM

## O=[N+]([O-])c1cc([N+](=O)[O-])c2nc(O)c(O)nc2c1
[2]
  ED50: > 10 mg/kg
[3]
  Kb: 1230 nM
[4]
  Ratio: >16

## CN(C(=O)Nc1ccccc1)[C@H]1C[C@H](C(=O)O)Nc2cc(Cl)cc(Cl)c21
[6]
  IC50: 9 nM

## O=C(O)c1cc(=O)c2ccccc2[nH]1 [TRANSTORINE]
[2]
  ED50: > 250 mg/kg
[3]
  Kb: 154000 nM

## O=C(O)c1cc(O)c2c(Cl)cc(Cl)cc2n1
[2]
  ED50: > 250 mg/kg

## O=C(Nc1ccccc1)N[C@H]1C[C@H](C(=O)O)Nc2cc(Cl)cc(Cl)c21
[2]
  ED50: > 100 mg/kg
[3]
  Kb: 130 nM

## O=C(Cc1ccccc1)N[C@H]1C[C@H](C(=O)O)Nc2cc(Cl)cc(Cl)c21
[7]
  logP: 0.55
[2]
  ED50: 46 mg/kg
[1]
  IC50: 14 nM
[3]
  Kb: 530 nM
[4]
  Ratio: 9

## NC(Cc1ccc(CC(=O)N[C@H]2C[C@H](C(=O)O)Nc3cc(Cl)cc(Cl)c32)cc1)C(=O)O (stereo partly drawn)
[2]
  ED50: 29 mg/kg
[6]
  IC50: 32 nM
[3]
  Kb: 840 nM
[4]
  Ratio: 0.6

## NCc1ccc(CC(=O)N[C@H]2C[C@H](C(=O)O)Nc3cc(Cl)cc(Cl)c32)cc1
[8]
  half-life: 1.83 h
[2]
  ED50: 39 mg/kg
[6]
  IC50: 19 nM
[3]
  Kb: 240 nM
[4]
  Ratio: 15
